Measurements published in patent US20040110821A1, “GAL3 receptor antagonists for the treatment of affective disorders” (priority 2002, published 2004).
Where two headings read alike, the source gives them in different places.

Key:
human GAL3 receptor = target: T1, human GAL3 receptor (Homo sapiens, UniProt O60755); experiment: Radioligand binding at cloned human GAL3 receptor; details: cloned human GAL3 receptor
T1 construct: expressed in transfected cells
T1 sequence (O60755 1-368): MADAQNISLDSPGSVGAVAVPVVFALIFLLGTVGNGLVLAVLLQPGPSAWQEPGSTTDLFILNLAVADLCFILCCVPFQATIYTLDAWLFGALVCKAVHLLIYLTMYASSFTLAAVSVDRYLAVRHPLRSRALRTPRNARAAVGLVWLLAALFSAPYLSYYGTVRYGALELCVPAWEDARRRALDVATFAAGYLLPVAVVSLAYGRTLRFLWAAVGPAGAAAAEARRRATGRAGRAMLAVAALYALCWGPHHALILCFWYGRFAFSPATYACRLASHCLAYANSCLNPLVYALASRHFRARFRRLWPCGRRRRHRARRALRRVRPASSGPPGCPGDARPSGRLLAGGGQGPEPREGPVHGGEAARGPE
Procedure: (§1) The present invention provides for a method of determining the binding affinity of a GAL3 antagonist, wherein the GAL3 antagonist is dissolved in a “suitable solvent”. A “suitable solvent” means one which permits the measurement of binding affinity of the GAL3 antagonist to the human GAL3 receptor at concentrations less than 1 μM, preferably less than 100 nM. Examples of solvents include, but are not limited to, DMSO, ethanol, N,N-dimethylacetamide, or water. For indolones, the preferred solvent is 3% DMSO (final concentration in the assay). For pyrimidines, the preferred solvent is 1% ethanol/0.09% polypuronic acid F-127 (final concentration in the assay). For any other type of compounds, the preferred solvent is the solvent which permits the measurement of binding affinity of a GAL3 antagonist at the lowest concentration. Once a suitable solvent is ascertained for the binding assay of the human GAL3 receptor, the same solvent is used in assays to determine the binding affinity for instance, at the GAL1 receptor.
(§2) The binding properties of the pyrimidines of the present invention were evaluated at the cloned human galanin receptors, GAL1, GAL2, and GAL3, using protocols described herein.
(§3) The binding properties of the indolones of the present invention were evaluated at the cloned human galanin receptors, GAL1, GAL2, and GAL3, using protocols described herein.
(§4) LM(tk-) cells were stably transfected with the human GAL1 or GAL3 receptor. CHO cells were stably transfected with the human GAL2 receptor.
(§5) cDNAs for the human and rat GAL1, and human and rat GAL3 receptors were transfected with a G-418 resistant gene into the mouse fibroblast LM(tk-) cell line by a calcium phosphate transfection method (Cullen, 1967). Stably transfected cells were selected with G-418. Human and rat GAL2 receptors were similarly transfected into CHO cells.
(§6) Membranes were harvested from stably transfected LM(tk-) cells. Adherent cells were washed twice in ice-cold phosphate buffered saline (138 mM NaCl, 8.1 mM Na2HPO4, 2.5 mM KCl, 1.2 mM KH2PO4, 0.9 mM CaCl2, 0.5 mM MgCl2, pH 7.4) and lysed by sonication in ice-cold sonication buffer (20 mM Tris-HCl, 5 mM EDTA, pH 7.7). Large particles and debris were cleared by low speed centrifugation (200×g, 5 min, 4° C.). Membranes were collected from the supernatant fraction by centrifugation (32,000×g, 18 min, 4° C.), washed with ice-cold hypotonic buffer, and collected again by centrifugation (32,000×g, 18 min, 4° C.). The final membrane pellet was resuspended by sonication into a small volume of ice-cold binding buffer (−1 ml for every 5 plates: 10 mM NaCl, 20 mM HEPES, 0.22 mM KH2PO4, 1.26 mM CaCl2, 0.81 mM MgSO4, pH 7.4). Protein concentration was measured by the Bradford method (Bradford, 1976) using Bio-Rad Reagent, with bovine serum albumin as a standard. Membranes were held on ice for up to one hour and used fresh, or flash frozen and stored in liquid nitrogen. Membranes were prepared similarly from CHO cells.
(§7) Galanin Receptors: Binding assays were performed according to the following published methods: human GAL3 (PCT International Publication No. WO 98/15570), human GAL1 (PCT International Publication No. WO 95/2260) human GAL2 (PCT International Publication No. WO 97/26853).
(§8) Binding data were analyzed using nonlinear regression and statistical techniques available in the GraphPAD Prism package (San Diego, Calif.). Enzymatic assay data were derived from a standard curve of reference compound data.

human GAL2 receptor = target: T2, human GAL2 receptor (Homo sapiens, UniProt O43603); experiment: Radioligand binding at cloned human GAL2 receptor; details: pyrimidines, Tables 1-3, read-out: Ki (nM) GalR2
T2 construct: expressed in transfected cells
T2 sequence (O43603 1-387): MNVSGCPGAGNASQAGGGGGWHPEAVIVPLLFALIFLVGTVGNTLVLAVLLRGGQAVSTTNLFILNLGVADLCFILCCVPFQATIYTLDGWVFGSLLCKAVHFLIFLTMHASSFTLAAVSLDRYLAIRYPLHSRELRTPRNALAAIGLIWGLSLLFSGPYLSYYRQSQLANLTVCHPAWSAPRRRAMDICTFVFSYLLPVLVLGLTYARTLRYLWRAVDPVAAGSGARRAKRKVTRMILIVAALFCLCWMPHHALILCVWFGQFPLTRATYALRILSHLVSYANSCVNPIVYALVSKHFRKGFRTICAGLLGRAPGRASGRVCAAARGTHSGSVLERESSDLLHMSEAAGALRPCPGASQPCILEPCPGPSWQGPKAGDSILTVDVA
Procedure: as §1, §2, §3, §4, §5, §6, §7, §8

human GAL1 receptor = target: T3, human GAL1 receptor (Homo sapiens, UniProt P47211); experiment: Radioligand binding at cloned human GAL1 receptor; details: pyrimidines, Tables 1-3, read-out: Ki (nM) GalR1
T3 construct: expressed in transfected cells
T3 sequence (P47211 1-349): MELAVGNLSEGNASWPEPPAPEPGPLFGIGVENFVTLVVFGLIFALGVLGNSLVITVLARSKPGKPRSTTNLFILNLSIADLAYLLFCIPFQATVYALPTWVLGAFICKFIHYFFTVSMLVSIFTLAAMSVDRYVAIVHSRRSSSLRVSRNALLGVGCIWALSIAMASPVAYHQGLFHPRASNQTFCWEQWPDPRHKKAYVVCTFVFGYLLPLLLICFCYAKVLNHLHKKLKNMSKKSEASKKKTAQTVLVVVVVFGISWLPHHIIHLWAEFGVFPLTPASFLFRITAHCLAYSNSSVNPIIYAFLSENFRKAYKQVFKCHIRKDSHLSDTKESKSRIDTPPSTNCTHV
Procedure: as §1, §2, §3, §4, §5, §6, §7, §8

[1] = pyrimidines, Table 3a, read-out: Ki (nM) Gal3
[2] = indolones, Table 4a, read-out: Ki (nM) Gal3
[3] = pyrimidines, Tables 1-3, read-out: Ki (nM) GalR3

| Molecule | Ki (human GAL3 receptor; [1]) [nM] | Ki (human GAL3 receptor; [2]) [nM] | Ki (human GAL2 receptor) [nM] | Ki (human GAL1 receptor) [nM] | Ki (human GAL3 receptor; [3]) [nM] |
| --- | --- | --- | --- | --- | --- |
| CN(C)c1cc(N[C@@H]2C[C@H]3CC[C@]2(C)C3(C)C)nc(N2CCN(Cc3ccccc3)CC2)n1 [Example 153] | 55 |  |  |  |  |
| O=C1/C(=N\c2ccc(Oc3ccccc3)cc2)c2ccccc2N1c1ccsc1 [Example 268, 3Z)-3-[(4-PHENOXYPHENYL)IMINO]-1-(3-THIENYL)-1,3-DIHYDRO-2H-INDOL-2-ONE] |  | 57 |  |  |  |
| Cc1ccc(Nc2cc(N(C)C)nc(N3CCN(c4cccc(C)c4)CC3)n2)cc1 [Example 86] |  |  | > 5000 | > 5000 |  |
| Cc1ccc(Nc2cc(N3CCCCC3)nc(Nc3ccccc3)n2)cc1 [Example 3] |  |  | > 5000 | > 5000 |  |
| Cc1ccc(Nc2nc(Nc3cccc(C)c3)cc(N(C)C)n2)cc1 [Example 53] |  |  | > 5000 | > 5000 |  |
| CN(C)c1cc(Nc2ccc(Br)cc2)nc(Nc2ccccc2)n1 [Example 59] |  |  | > 5000 | > 5000 |  |
| Cc1ccc(Nc2cc(N3CCCCC3)nc(N3CCN(Cc4ccccc4)CC3)n2)cc1 [Example 23] |  |  | > 5000 | > 5000 |  |
| Cc1ccc(Nc2cc(N3CCCCC3)nc(N(C)CCc3c[nH]c4ccccc34)n2)cc1Cl [Example 16] |  |  | > 5000 | > 5000 |  |
| CN(C)c1cc(NC23CC4CC(CC2C4)C3)nc(N2CCN(Cc3ccccc3)CC2)n1 [Example 137] | 124 |  |  |  |  |
| CN1C(=O)c2ccc(/N=C3\C(=O)N(c4ccccc4)c4ccccc43)cc2C1=O [Example 110, 2-METHYL-5-[(2-OXO-1-PHENYL-1,2-DIHYDRO-3H-INDOL-3-YLIDENE)AMINO]-2H—ISOINDOLE-1,3(2H)-DIONE] |  | 138 |  |  |  |
| N^2-[2-(1H-INDOL-3-YL)ETHYL]-N^2,N^4,N^4-TRIMETHYL-(2-NAPHTHYL)-6-(1-PIPERIDINYL)-2,4,6-PYRIMIDINETRIAMINE [Example 79] |  |  | 1660 | 3800 | 190 |
| Cc1ccc(Nc2cc(N(C)C)nc(N3CCN(S(=O)(=O)c4ccc(C)cc4)CC3)n2)cc1 [Example 84] |  |  | > 5000 | > 5000 |  |
| Cc1ccc(Nc2cc(N3CCCCC3)nc(N3CCN(c4cccc(C(F)(F)F)n4)CC3)n2)cc1 [Example 33] |  |  | > 5000 | > 5000 |  |
| CN(C)c1cc(Nc2ccc(C(C)(C)C)cc2)nc(Nc2ccccc2)n1 [Example 63] |  |  | > 5000 | > 5000 |  |
| Cc1ccc(Nc2cc(N3CCCCC3)nc(Nc3ccc(C)cc3)n2)cc1 [Example 4] |  |  | > 5000 | > 5000 |  |
| CN(C)c1cc(NC2CCCCC2)nc(Nc2ccccc2)n1 [Example 66] |  |  | > 5000 | > 5000 |  |

| Molecule | Ki (human GAL3 receptor; [1]) [nM] | Ki (human GAL3 receptor; [2]) [nM] | Ki (human GAL2 receptor) [nM] | Ki (human GAL1 receptor) [nM] | Ki (human GAL3 receptor; [3]) [nM] |
| --- | --- | --- | --- | --- | --- |
| Cc1ccc(/N=C2\C(=O)N(c3ccccc3)c3ccccc32)c(Cl)c1 [Example 286] |  | 38 |  |  |  |
| Cc1ccc(Nc2cc(N3CCCCC3)nc(N3Cc4cccc5cccc(c45)C3)n2)cc1 [Example 43] |  |  | > 5000 | > 5000 |  |
| CN(C)c1cc(Nc2ccccc2)nc(Nc2ccccc2)n1 [Example 50] |  |  | > 5000 | > 5000 |  |
| CN(C)c1cc(Nc2ccc3ccccc3c2)nc(Nc2ccccc2)n1 [Example 65] |  |  | > 5000 | > 5000 |  |
| C[C@H]1CC2CC([C@@H]1Nc1cc(N(C)C)nc(Nc3ccccc3)n1)C2(C)C (stereo partly shown) [Example 71] |  |  | 944 |  | 72 |
| CN(C)c1cc(Nc2cccc(F)c2)nc(Nc2ccccc2)n1 [Example 57] |  |  | > 5000 | > 5000 |  |
| Cc1cccc(Nc2cc(N(C)C)nc(Nc3ccccc3)n2)c1 [Example 52] |  |  | > 5000 | > 5000 |  |
| CN(C)c1cc(Nc2ccc(Oc3ccccc3)cc2)nc(Nc2ccccc2)n1 [Example 64] |  |  | > 5000 | > 5000 |  |
| CN(CCc1c[nH]c2ccccc12)c1nc(NCCc2ccccc2)cc(N2CCCCC2)n1 [Example 12] |  |  | 2000 | > 5000 | 322 |
| Cc1ccc(Nc2cc(N(C)C)nc(Nc3ccccc3)n2)cc1 [Example 54] |  |  | > 5000 | > 5000 |  |
| COCCN(CCOC)c1nc(Nc2ccc(C)cc2)cc(N2CCCCC2)n1 [Example 45] |  |  | > 5000 | > 5000 |  |
| CN(C)c1cc(Nc2ccccc2Cl)nc(N2CCN(c3ccccn3)CC2)n1 [Example 195] | 388 |  |  |  |  |
| Cc1ccc(Nc2cc(N(C)C)nc(Nc3ccc(C)cc3)n2)cc1 [Example 56] |  |  | > 5000 | > 5000 |  |
| O=C1/C(=N\c2ccc(-c3cccc(C(F)(F)F)c3)cc2)c2ccccc2N1c1ccccc1 [Example 305, (3Z)-1-PHENYL-3-{[3′-(TRIFLUOROMETHYL)[1,1′-BIPHENYL]-4-YL]IMINO}-1,3-DIHYDRO-2H-INDOL-2-ONE] |  | 638 |  |  |  |
| Cc1ccc(Nc2cc(N(C)C)nc(Nc3ccc(Cl)c(Cl)c3)n2)cc1 [Example 55] |  |  | > 5000 | > 5000 |  |
| CN(C)c1cc(Nc2ccc(Cl)cc2C(F)(F)F)nc(N2CCN(Cc3ccccc3)CC2)n1 [Example 239] | 59 |  |  |  |  |
